Values after ≈ are worked out from the molar mass of the structure shown.
Legend:
Assay type in all cases: cell-based
E.coli 020028 = test: MIC, two-fold agar dilution, clinical isolate; conditions: Escherichia coli, single drug, average of three tests
Procedure: (§1) The minimum inhibitory concentration (MIC) of the compound and combination with β-lactamase (MBLs) inhibitors against clinically isolated carbapenem-resistant enterobacteriaceae was determined by the two-fold agar dilution method to determine the activity of the compound to be tested against strains producing MBLs. Antibiotics and enzyme inhibitors were weighed separately and dissolved in sterile ultrapure water or dimethyl sulfoxide to prepare mother liquor, MHA medium was prepared, pH was adjusted to 7.2-7.4, and it was sterilized at 121° C. for 15 minutes and placed in a 55° C. water bath for heat preservation. The mother liquor was diluted to the concentration to be tested by double dilution method, an inoculum liquid was prepared by direct bacterial suspension method, 1 mL of the prepared bacteria solution was withdrawn and putted into the inoculation tube, and a positioning needle and an inoculation needle were installed. A bacterial multi-point inoculator was started for inoculation. After the bacterial solution was absorbed by the agar, the plate was placed upside down in an incubator at 37° C. for 16-20 hours, and the results were observed. The average of three tests was taken.

E.coli 020031 = test: MIC, two-fold agar dilution, clinical isolate; conditions: Escherichia coli, single drug, average of three tests
Procedure: as §1

E.coli 020033 = test: MIC, two-fold agar dilution, clinical isolate; conditions: Escherichia coli, single drug, average of three tests
Procedure: as §1

E.coli 115103 = test: MIC, two-fold agar dilution, clinical isolate; conditions: Escherichia coli, 115103
Procedure: as §1

E.coli BAA-2452 = test: MIC, two-fold agar dilution, clinical isolate; conditions: Escherichia coli, BAA2452; E.coli BAA-2452; single drug; average of three tests; read-out: MIC
Procedure: as §1

E.coli C1569 = test: MIC, two-fold agar dilution, clinical isolate; conditions: Escherichia coli, single drug, average of three tests
Procedure: as §1

E.coli CRE18 = test: MIC, two-fold agar dilution, clinical isolate; conditions: Escherichia coli, CRE18
Procedure: as §1

E.coli CRE21 = test: MIC, two-fold agar dilution, clinical isolate; conditions: Escherichia coli, CRE21
Procedure: as §1

E.coli CRE23 = test: MIC, two-fold agar dilution, clinical isolate; conditions: Escherichia coli, CRE23
Procedure: as §1

E.coli CRE28 = test: MIC, two-fold agar dilution, clinical isolate; conditions: Escherichia coli, CRE28
Procedure: as §1

K.p 090339 = test: MIC, two-fold agar dilution, clinical isolate; conditions: K.p 090339; single drug; average of three tests; read-out: MIC
Procedure: as §1

K.p 115004 = test: MIC, two-fold agar dilution, clinical isolate; conditions: K.p 115004; single drug; average of three tests; read-out: MIC
Procedure: as §1

K.p 11544 = test: MIC, two-fold agar dilution, clinical isolate
Procedure: as §1

K.p 13249 = test: MIC, two-fold agar dilution, clinical isolate
Procedure: as §1

K.p 6777 = test: MIC, two-fold agar dilution, clinical isolate
Procedure: as §1

K.p BAA-2470 = test: MIC, two-fold agar dilution, clinical isolate
Procedure: as §1

K.p C904 = test: MIC, two-fold agar dilution, clinical isolate
Procedure: as §1

K.p CRE11 = test: MIC, two-fold agar dilution, clinical isolate
Procedure: as §1

K.p CRE12 = test: MIC, two-fold agar dilution, clinical isolate; conditions: single drug, average of three tests
Procedure: as §1

K.p CRE16 = test: MIC, two-fold agar dilution, clinical isolate; conditions: single drug, average of three tests
Procedure: as §1

K.p HX37 = test: MIC, two-fold agar dilution, clinical isolate
Procedure: as §1

K.p HX77 = test: MIC, two-fold agar dilution, clinical isolate; conditions: single drug, average of three tests
Procedure: as §1

[1] = system: Morganella morganii C1274; test: MIC, two-fold agar dilution, clinical isolate; conditions: Morganella morganii C1274; single drug; average of three tests; read-out: MIC
Procedure: as §1

E.coli 115101 = test: MIC, two-fold agar dilution, clinical isolate; conditions: Escherichia coli, 115101
Procedure: as §1, with “Antibiotics and enzyme inhibitors were weighed separately and dissolved in sterile ultrapure water or dimethyl sulfoxide to prepare mother liquor, MHA medium was prepared, pH was adjusted to 7.2-7.4, and it was sterilized at 121° C. for 15 minutes and placed in a 55° C. water bath for heat preservation.” left out

E.coli 115105 = test: MIC, two-fold agar dilution, clinical isolate; conditions: Escherichia coli, single drug, average of three tests
Procedure: as §1, with “Antibiotics and enzyme inhibitors were weighed separately and dissolved in sterile ultrapure water or dimethyl sulfoxide to prepare mother liquor, MHA medium was prepared, pH was adjusted to 7.2-7.4, and it was sterilized at 121° C. for 15 minutes and placed in a 55° C. water bath for heat preservation.” left out

K.p HX30 = test: MIC, two-fold agar dilution, clinical isolate
Procedure: as §1, with “Antibiotics and enzyme inhibitors were weighed separately and dissolved in sterile ultrapure water or dimethyl sulfoxide to prepare mother liquor, MHA medium was prepared, pH was adjusted to 7.2-7.4, and it was sterilized at 121° C. for 15 minutes and placed in a 55° C. water bath for heat preservation.” left out

[2] = system: Enterobacter cloacae ATCC BAA-1143 (AmpC); test: MIC, micro-liquid dilution (CLSI); conditions: ATCCBAA1143, E. cloacae ATCC BAA-1143, Class C (AmpC), 20-24 h, 37° C.
Procedure: (§2) Three strains of Klebsiella pneumonia, ATCC BAA-205 (TEM-1/SHV-1/SHV-12), ATCC BAA-1705 (KPC-2), ATCC BAA-2470 (NDM-1), Enterobacter cloacae ATCC BAA-1143 (AmpC), two strains of Escherichia coli ATCC BAA-2523 (OXA-48), ATCC 25922 were used to determine the minimum inhibitory concentration (MIC) of each of the compounds by micro-liquid dilution method according to the Institute of Clinical and Laboratory Standard (CLSI) requirements. […]. The plate was placed upside down at 37° C. and the MIC value was read after 20-24 h of incubation, and the lowest drug concentration that inhibited the growth of bacteria was set as MIC. Colony-Forming Units (CFU) refer to the total number of bacterial colonies per unit volume.

[3] = system: Escherichia coli ATCC 25922; test: MIC, micro-liquid dilution (CLSI); conditions: ATCC25922, E. coli ATCC 25922, 20-24 h, 37° C.
Procedure: as §2

[4] = system: Escherichia coli ATCC BAA-2523 (OXA-48); test: MIC, micro-liquid dilution (CLSI); conditions: ATCCBAA2523, E. coli ATCC BAA-2523, Class D (OXA-48), 20-24 h, 37° C., read-out: MIC
Procedure: as §2

[5] = system: Klebsiella pneumonia ATCC BAA-1705 (KPC-2); test: MIC, micro-liquid dilution (CLSI); conditions: Klebsiella pneumoniae, ATCCBAA1705; K. pneumonia ATCC BAA-1705, Class A (KPC-2); 20-24 h, 37° C.
Procedure: as §2

[6] = system: Klebsiella pneumonia ATCC BAA-205 (TEM-1/SHV-1/SHV-12); test: MIC, micro-liquid dilution (CLSI); conditions: Klebsiella pneumoniae, ATCCBAA205; K. pneumonia ATCC BAA-205, Class A (TEM-1/SHV-1/SHV-12); 20-24 h, 37° C.
Procedure: as §2

[7] = system: Klebsiella pneumonia ATCC BAA-2470 (NDM-1); test: MIC, micro-liquid dilution (CLSI); conditions: Klebsiella pneumoniae, ATCCBAA2470; K. pneumonia ATCC BAA-2470, Class B (NDM-1); 20-24 h, 37° C.
Procedure: as §2

C[C@H]1[C@H](NC(=O)/C(=N\OC(C)(C)C(=O)O)c2csc(N)n2)C(=O)N1S(=O)(=O)O [Aztreonam]
MIC (E.coli 020028): 16 µg/mL | MIC (E.coli 020031): 4 µg/mL | MIC (E.coli 020033): 32 µg/mL | MIC (E.coli 115103): 128 µg/mL | MIC (E.coli BAA-2452): 16 µg/mL | MIC (E.coli C1569): 1 µg/mL | MIC (E.coli CRE18): > 128 µg/mL | MIC (E.coli CRE21): > 128 µg/mL | MIC (E.coli CRE23): > 128 µg/mL | MIC (E.coli CRE28): > 128 µg/mL | MIC (K.p 090339): 64 µg/mL | MIC (K.p 115004): 64 µg/mL | MIC (K.p 11544): > 128 µg/mL | MIC (K.p 13249): > 128 µg/mL | MIC (K.p 6777): 128 µg/mL | MIC (K.p BAA-2470): > 128 µg/mL | MIC (K.p C904): > 128 µg/mL | MIC (K.p CRE11): 128 µg/mL | MIC (K.p CRE12): 4 µg/mL | MIC (K.p CRE16): 64 µg/mL | MIC (K.p HX37): > 128 µg/mL | MIC (K.p HX77): 16 µg/mL | MIC [1]: 4 µg/mL | MIC (E.coli 115101): > 128 µg/mL | MIC (E.coli 115105): 16 µg/mL | MIC (K.p HX30): > 128 µg/mL

Nc1nc(/C(=N/OC2(C(=O)O)CC2)C(=O)N[C@@H]2C(=O)N(S(=O)(=O)O)[C@@H]2CN2CCCNS2(=O)=O)cs1 [Compound 2]
MIC [2]: 2 µg/mL (≈ 3.52 µM) | MIC [3]: 4 µg/mL (≈ 7.05 µM) | MIC [4]: 1 µg/mL (≈ 1.76 µM) | MIC [5]: 2 µg/mL (≈ 3.52 µM) | MIC [6]: 1 µg/mL (≈ 1.76 µM) | MIC [7]: 1 µg/mL (≈ 1.76 µM)

CC(=O)OC[C@@H]1CN(C[C@@H]2[C@H](NC(=O)/C(=N\OC3(C(=O)O)CC3)c3csc(N)n3)C(=O)N2S(=O)(=O)O)S(=O)(=O)N1 [Compound 3]
MIC [2]: 2 µg/mL (≈ 3.2 µM) | MIC [3]: 4 µg/mL (≈ 6.39 µM) | MIC [4]: 0.25 µg/mL (≈ 0.4 µM) | MIC [5]: 2 µg/mL (≈ 3.2 µM) | MIC [6]: 2 µg/mL (≈ 3.2 µM) | MIC [7]: 1 µg/mL (≈ 1.6 µM)
